Source: US7309484B2, “Compositions and methods for screening antibacterial compounds” (priority 2003, dated 2007)
Bridge positions count the residues as written; N and C are the ends. Square brackets hold non-standard residues; d marks the D form. Peptide text beside a SMILES is read from it. * marks the point of attachment. Ileψ(thiazoline)Cys = CC[C@H](C)[C@H](N)C1=N[C@H](C(=O)*)CS1; dOrn = NCCC[C@@H](N)C(=O)O

What was measured:
[1] = test system: B. subtilis strain BFS2470; assay: Concentration-dependent induction/killing experiments; assay type: cell-based, Bacillus subtilis
Experimental: Concentration-dependent induction/killing experiments were performed for bacitracin, nisin, ramoplanin and vancomycin as shown in FIG. 7. In all four cases the induction of liaI occurred in a concentration-dependent manner (FIG. 7a), reaching a maximum at an antibiotic concentration of about 10 μg/ml (1 μg/mL for vancomycin). The time of antibiotic addition is indicated by an arrow. The antibiotic concentrations affecting the induction of PliaI according to the β3-galactosidase assay are indicated by white symbols. The corresponding concentrations are: bacitracin ([…]), nisin (50, 70 and 100 μg/ml), ramoplanin (20, 50 and 100 μg/mL) and vancomycin (5, 10, 50 and 100 μg/mL).
This finding correlates well with the bactericidal effects of these antibiotics as inferred from the dramatic decrease of optical density: there is little effect of bacitracin and vancomycin on cell growth during the first 30-60 min after addition even at high concentrations (FIG. 7b).
The cultures were incubated with aeration at 37° C.

[2] = test system: liaI expression (pMUTIN-derived lacZ fusion, strain BFS2470); assay: microbe, parasite or virus in culture; conditions: Bacillus subtilis, 0.5 h, read-out: fold induction of liaI expression
Experimental: Disc-diffusion assays were used to determine the spectrum of stimuli that induce the expression of liaIH. The B. subtilis strains BFS2469 and BFS2470 (Table 2), harboring pMUTIN-insertions in liaH and liaI respectively, were plated on a medium containing the indicator dye X-gal and overlaid with filter disks impregnated with various antibiotics that interfere with cell wall biosynthesis. Specifically, cultures of B. subtilis strain BFS2469 (liaH::pMUTIN) and BFS2470 (liaI::pMUTIN) were grown in LB medium to midlog phase, 2 mL for the un-induced control sample were harvested, and the remaining culture was induced with the three antibiotics for 30 minutes, before the cells of the induced sample were harvested. All samples were taken in duplicate from two independent cultures and the standard deviation is indicated by error bars.
Measurement of induction by β-galactosidase assays: Cells were inoculated from fresh overnight LB-plates and grown in LB-medium at 37° C. with aeration until they reached an O.D.600=0.45. 2 mL of cultures were harvested (un-induced control) and the cell pellets were shock frozen and kept at −70° C. The cultures were induced by addition of antibiotics to a final concentration of: bacitracin (100 μg/mL), tunicamycin (50 μg/mL) or vancomycin (2 μg/mL) and incubated for additional 30 min at 37° C. 2 mL of the cultures were harvested as described above (induced sample). The pellets were re-suspended in 1 mL of working buffer and assayed for β-galactosidase activity as described with normalization to cell density (Miller, 1972, the entire teaching of which is incorporated herein by reference).
For quantitative measurements of β-galactosidase activity, cells were inoculated from fresh overnight LB-plates and grown in LB medium at 37 YC with aeration until they reached an OD600 of 0.45. 2 ml of the culture was harvested (un-induced control) and the cell pellets were frozen and kept at −80 YC. The cultures were induced by addition of the compound to be tested to the final concentration as described in the individual figure legends and incubated for an additional 30 min at 37 YC. 2 ml of the cultures were harvested as described above. The pellets were re-suspended in 1 ml of working buffer (60 mM Na2HPO4, 40 mMNaH2PO4, 10 mM KCl, 1 mM MgSO4, 4 mM DTT) and assayed for β-galactosidase activity as described with normalization to cell density Kobayashi, K., et al., 2001, J Bacteriol 183:7365-7370). […] A sample was taken after 30 min for β-galactosidase assay and the turbidity of the remaining culture was measured for at least 5 hours to monitor the concentration-dependent effects of the antibiotics on cell growth.

[3] = test system: liaI expression (liaI::pMUTIN lacZ fusion, strain BFS2470; also liaH::pMUTIN, BFS2469); assay: Disk-diffusion assay, blue ring on X-Gal plates; assay type: cell-based, Bacillus subtilis; on Disk-diffusion assay: key: −: no induction; +: induction of yvql expression
Description: The pMUTIN-insertion results in a disruption of the targeted gene and generates a transcriptional fusion to lacZ thereby allowing detection of both antibiotic sensitivity (as defined by the zone of inhibition around the disk) and inducibility (by the formation of a blue ring at the edge of the zone of inhibition) (Cao et al., 2002, Mol Microbiol. 45: 1267-1276, the entire teaching of which is incorporated herein). The disruption of liaI and liaH had no effect on the sensitivity of the mutants to any of the antibiotics tested. […] Equivalent levels of induction were also observed with the PliaI-74-cat-lacZ fragment (in HB0950), albeit with lower fold-changes (See, Table 2). While the mode of action is different for these antibiotics, all four interfere with the lipid II cycle, essential for the biosynthesis of cell envelope polymers (Lazar et al., 2002, Curr. Opin. Chem. Biol. 6: 786-93).
PliaI induction assays: Screening for liaI induction was done by disk diffusion assay essentially as described (Cai, S. J., and M. Inouye, 2002, J Biol Chem 277:24155-61). B. subtilis strains were inoculated from a fresh overnight LB agar plate and grown to mid-log phase (OD600 ˜0.45) at 37 YC with shaking. 20 μl of the culture was mixed with 3 ml of 0.7% soft LB agar (containing 40 μg of X-Gal per plate) and poured onto the bottom agar. After cooling and drying of the plates (20 min at 37 YC), filter paper disks (6 mm diameter) carrying 5 μl of stock solution (antibiotics normally 100 mg/ml; lysozyme 10 mg/ml; tunicamycin, surfactants, uncouplers 5 mg/ml each; inhibitors of protein biosynthesis as given in the media and growth conditions section) were placed on top of the agar. The plates were incubated at 37 YC overnight. After 12-24 h incubation, the plates were scored for the appearance of a blue ring at or near the edge of the zone of growth inhibition produced by the diffusion of the antibiotics from the filter disk.

## CC[C@H](C)[C@H](N)C1=N[C@H](C(=O)N[C@@H](CC(C)C)C(=O)N[C@H](CCC(=O)O)C(=O)N[C@H](C(=O)N[C@H]2CCCCNC(=O)[C@H](CC(N)=O)NC(=O)[C@@H](CC(=O)O)NC(=O)[C@H](Cc3cnc[nH]3)NC(=O)[C@@H](Cc3ccccc3)NC(=O)[C@H]([C@@H](C)CC)NC(=O)[C@@H](CCCN)NC2=O)[C@@H](C)CC)CS1 [Bacitracin] ({Ileψ(thiazoline)Cys}-L[dE]IK[dOrn]I[dF]H[dD]N; lactam 4-C)
[1]; FIG. 7a, in words
  lacZ-expression at higher concentration: remained elevated
[1]; high concentrations, FIG. 7b, in words
  effect on cell growth / optical density: little effect
[1]; β-galactosidase assay after 30 min, 0.01 to 100 μg/ml tested
  antibiotic concentration at maximum induction of liaI: about 10 μg/ml
[2]
  fold induction at 100 µg/mL: > 500
[3]; qualitative screen of β-Galactosidase activity, blue ring at edge of zone of inhibition, LB plates with X-Gal, strain BFS2470
  disk-diffusion assay: +
[3]; strains BFS2469 and BFS2470
  induction of liaI / liaH expression, in words: induced
